Measurements taken from patent US20240294588A1, “C2 Domain Therapeutics and Uses Thereof” (University of Maryland, Baltimore, priority 2021, published 2024).
“Also recorded” adds a separate entry of the source. Read-outs that look alike come from different tables or passages of the source.

How the values were obtained:
[1] = tested on: dysferlin-null A/J myofibers; test: Ca2+ signaling: voltage-induced Ca2+ transients (Rhod-2) and Ca2+ waves before and after osmotic shock injury (OSI) in electroporated FDB myofibers; assay type: cell-based, mouse; conditions: for Effect on amplitude of Ca2+ transients: A/J fibers, FIG. 8; for Ca2+ signaling activity (restoring/protecting amplitude of the Ca2+ transient after OSI): construct electroporated into dysferlin-null A/J FDB fibers, Rhod-2, before and 5 min after OSI; for Ca2+ wave frequency / suppression of Ca2+ waves after OSI: construct expressed in A/J fibers; for y-intercept for Ca transient (normalized Ca release vs amount of Venus construct in each fiber) / y-intercept for wave frequency (Ca wave frequency vs amount of Venus construct in each fiber): intercept at low expression level, FIG. 2E / FIG. 4E
Text: (§1) FIGS. 2A-2E show the DYSF-C2A distribution and partial protection against loss of Ca^2+ transient and development of Ca^2+ waves after OSI. The construct in FIG. 2A was electroporated into Flexor digitorum brevis (FDB) muscles of dysferlin-null A/J mice and imaged 10 d later. […] Distribution of the Venus construct is indicated to the right. Recovery is partial (in the upper region of fiber). FIG. 2D quantitates results from several dozen fibers of each type. […] Higher levels of expression show more consistent recoveries and suppression of waves than lower levels.
To assay Ca^2+ transients, Rhod-2 was added to myofibers as the Rhod2-AM derivative at a concentration of 4.4 μM, or almost 500× higher than the concentration of BAPTA-AM that effectively restores the WT phenotype. Rhod-2 is essentially rhodamine on a BAPTA backbone, so its mode of binding Ca^2+ is identical to that of BAPTA. Rhod-2 has a (calculated) Stokes' radius ˜20% larger than BAPTA; it has a lower affinity for Ca^2+ and its solubility in DMSO is ˜20× lower than BAPTA's. Rhod-2 appears to distribute uniformly in the myoplasm under these conditions of loading.

[2] = tested on: dysferlin-null A/J myofibers; test: Distribution of Venus-tagged constructs (triad junctions vs Z-disks) in transfected myofibers; assay type: cell-based, mouse; conditions: FIG. 6
Text: as §1
The constructs in FIG. 4A were electroporated and visualized as in FIG. 2. […] Recovery is complete. FIG. 4D quantitates results from several dozen fibers transfected with each construct. […] Note the high level of Ca release and low frequency of waves indicated by the y-intercepts at low transfection levels.
A Venus-tagged version of the C2 domain of PKCα was expressed in both control (C57Bl/6) (FIG. 12A) and dysferlin-null (A/J) myofibers (FIG. 12B) and the transfected fibers were imaged. […] They help to explain the ability of the chimeric constructs containing Ven-C2-PKCα to potentiate the beneficial effects of the DYSF-C2A domain.

FDB muscles of A/J mice [3] = test: Membrane repair after infrared laser injury in the presence of FM4-64 dye; assay type: cell-based, mouse; conditions: A/J FDB muscle, FM4-64 fluorescence, area under curve
Text: FIGS. 3A-3B show the membrane repair by the DYSF-C2A domain. FDB muscles of A/J mice were electroporated with expression plasmids for WT DYSF or DYSF-C2A. 7d later muscles were removed and injured by infrared laser illumination in the presence of FM4-64 lipophilic dye. […] Means±SEM, n=7, *p<0.01 by ANOVA followed with Tukey's post-hoc test.

Solubility in DMSO = assay type: physicochemical
cultured myofibers = test: Accumulation of chelator in treated myofibers, estimated with fluorescent variant Fluo4-AM; assay type: cell-based; conditions: 10 nM extracellular concentration
Procedure: This concentration of BAPTA in myofibers is sufficient to restore elevated myoplasmic [Ca^2+ ] of 150-200 nM to levels close to WT levels of ˜100 nM. This can explain why as little as 10 nM BAPTA-AM can restore the WT phenotype.

[4] = tested on: dysferlin-null A/J myofibers; conditions: dysferlin-null fibers, background / known results, cited from earlier work
FDB muscles of A/J mice [5] = conditions: dysferlin-null fibers, background / known results; cited from earlier work
dysferlin and PKCα = test: Colocalization and co-immunoprecipitation of dysferlin and PKCα; assay type: cell-based

With `CN[C@@H]1C[C@H]2O[C@@](C)([C@@H]1OC)n1c3ccccc3c3c4c(c5c6ccccc6n2c5c31)C(=O)NC4` [staurosporine, reference compound] the “Effect on amplitude of Ca2+ transients” value [1] was “significantly alter the amplitude of the Ca^2+ transients”.
With “A84V: full length dysferlin with polymorphism A84V in C2A [reference compound]” the “Ca2+ signaling activity (restoring/protecting amplitude of the Ca2+ transient after OSI)” value [1] was “left dysferlin's Ca^2+ signaling activity intact”.
With “C2-PKCα-DYSF-C2A: chimeric construct with C2-PKCα just N-terminal to DYSF-C2A, tagged with Venus; SEQ ID NO: 11” the “Transfected fibers with construct targeted to / concentrated at TJs” value [2] was roughly 25%, the “Ca2+ signaling activity (restoring/protecting amplitude of the Ca2+ transient after OSI)” value [1] was “results identical to WT DYSF; also recorded: indistinguishable from WT DYSF in restoring the amplitude of the Ca^2+ transient” and the “Ca2+ wave frequency / suppression of Ca2+ waves after OSI” value [1] was “almost as effective in suppressing Ca^2+ waves”. For the same molecule, the “y-intercept for Ca transient (normalized Ca release vs amount of Venus construct in each fiber)” value [1] was 3.7, the “y-intercept for wave frequency (Ca wave frequency vs amount of Venus construct in each fiber)” value [1] was 0.11 and the Membrane repair activity (FDB muscles of A/J mice [3]) was “improved repair as well as WT DYSF; also recorded: just as effective as WT DYSF in supporting membrane repair”.
With Rhod-2 the “Solubility in DMSO relative to BAPTA” value (Solubility in DMSO) was roughly 20 × lower.
For `CC(=O)OCOC(=O)CN(CC(=O)OCOC(C)=O)c1ccc(C)cc1OCCOc1cc(-c2c3cc(F)c(=O)cc-3oc3cc(OCOC(C)=O)c(F)cc23)ccc1N(CC(=O)OCOC(C)=O)CC(=O)OCOC(C)=O` [Fluo4-AM], the “Intracellular vs extracellular concentration” value (cultured myofibers) was 7-10 fold.
For “V67D: full length dysferlin with pathogenic mutation V67D in C2A [reference compound]”, the “Ca2+ signaling activity (restoring/protecting amplitude of the Ca2+ transient after OSI)” value [1] was “inactivated full length dysferlin”.
In the case of “W52R: full length dysferlin with pathogenic mutation W52R in C2A [reference compound]”, the “Ca2+ signaling activity (restoring/protecting amplitude of the Ca2+ transient after OSI)” value [1] is reported as “inactivated full length dysferlin”.
In the case of “V68L: full length dysferlin with polymorphism V68L in C2A [reference compound]”, the “Ca2+ signaling activity (restoring/protecting amplitude of the Ca2+ transient after OSI)” value [1] is reported as “left dysferlin's Ca^2+ signaling activity intact”.
For “DYSF-C2A: C2A domain of dysferlin (AF075575.1, amino acids 1-100) expressed on its own as a Venus fusion protein; SEQ ID NO: 4”, the “Ca2+ signaling activity (restoring/protecting amplitude of the Ca2+ transient after OSI)” value [1] was “intermediate between Venus (negative control) and WT DYSF (positive control) controls; also recorded: partially restored some Ca^2+ signaling activity”, the “Ca2+ wave frequency / suppression of Ca2+ waves after OSI” value [1] was “low frequency of Ca^2+ waves, only slightly more than with WT DYSF” and the “y-intercept for Ca transient (normalized Ca release vs amount of Venus construct in each fiber)” value [1] was 0.47. The “y-intercept for wave frequency (Ca wave frequency vs amount of Venus construct in each fiber)” value [1] was 0.37 and the Membrane repair activity (FDB muscles of A/J mice [3]) was “improved repair as well as WT DYSF; also recorded: fully stabilized membrane repair activity”.
In the case of “2 C2-PKCα domains with a single DYSF-C2A domain: construct that contains 2 C2-PKCα domains with a single DYSF-C2A domain; SEQ ID NO: 13”, the “Transfected fibers with construct targeted to / concentrated at TJs” value [2] is reported as 75%.
In the case of “WT dysferlin: wild type full length dysferlin introduced by electroporation, positive control”, the “Ca2+ signaling (Ca2+ transient amplitude, loss after OSI, waves), earlier studies” value [4] is given as “restores full activity”, the “Ca2+ signaling (Ca2+ transient amplitude, loss after OSI, waves), earlier studies” value ([4]; listed as wild type dysferlin) is given as “restores the amplitude of Ca^2+ transients to WT levels” and the “Membrane repair, earlier studies” value (FDB muscles of A/J mice [5]) is given as “restores full activity”.
In the case of “C2 domain of PKCα: isolated C2 domain of PKCα (XP_024306597.1, residues 71-229), tagged with a Venus moiety”, the “Ca2+ signaling activity (restoring/protecting amplitude of the Ca2+ transient after OSI)” value [1] is reported as “completely without activity”, the “Ca2+ signaling activity (restoring/protecting amplitude of the Ca2+ transient after OSI)” value ([1]; listed as PKCα-C2) is reported as “failed to replicate the effects of DYSF-C2A” and the “Ca2+ signaling activity (restoring/protecting amplitude of the Ca2+ transient after OSI)” value ([1]; listed as PKCα-C2 domain) is reported as “inactive”. For the same molecule, the Membrane repair activity (FDB muscles of A/J mice [3]) was “inactive”.
With `CC(=O)OCOC(=O)CN(CC(=O)OCOC(C)=O)c1ccccc1OCCOc1ccccc1N(CC(=O)OCOC(C)=O)CC(=O)OCOC(C)=O` [BAPTA-AM, reference compound] the “Restoration of WT phenotype (Ca2+ transient before and after OSI, Ca2+ waves)” value ([1]; 10 nM added to cultured A/J myofibers) was “effectively restores A/J myofibers to the WT phenotype”.
In the case of `O=C1CN(/N=C/c2ccc(-c3ccc([N+](=O)[O-])cc3)o2)C(O)=N1` [dantrolene], the “Ca2+ signaling (Ca2+ transient amplitude, loss after OSI, waves), earlier studies” value [4] is given as “prevented these changes”.
For `COc1ccc([C@@H]2Sc3ccccc3N(CCN(C)C)C(=O)[C@@H]2OC(C)=O)cc1` [diltiazem], the “Ca2+ signaling (Ca2+ transient amplitude, loss after OSI, waves), earlier studies” value [4] is given as “prevented these changes”.
With `CCCCCCCCCCCCCC(=O)O[C@@H]1[C@@H](C)[C@@]2(O)[C@@H](C=C(CO)C[C@]3(O)C(=O)C(C)=C[C@@H]23)[C@@H]2C(C)(C)[C@]12OC(C)=O` [PMA, phorbol 12-myristate 13-acetate, reference compound] the “Effect on amplitude of Ca2+ transients” value [1] was “significantly alter the amplitude of the Ca^2+ transients” and the “Effect on colocalization of dysferlin and PKCα in myofibers and on co-IP from HEK cells” value (dysferlin and PKCα) was “neither phorbol 12-myristate 13-acetate (PMA) nor staurosporine, drugs that activate and inhibit PKCα, respectively, have any effect”.
